Experimental data from patent US9428551B2, “Antimicrobial peptides” (priority 2009, dated 2016).

Tests used:
[1] = tested on: S. epidermidis s42; experiment: potassium release, K+ sensitive fluorescent dye PBFI; type: cell-based; conditions: highest concentration, 10×MIC
Text: (§1) Results are expressed as % of positive control and that NI01 causes concentration dependent release of potassium from indicator cells with 100% being released at the highest concentration of NI01 assessed (10×MIC).

[2] = tested on: Staphylococcal isolates associated with joint or tissue infections; experiment: deferred antagonism method, inhibition of clinical Staphylococcal isolates; type: cell-based, Staphylococci; set-up: key to Inhibition caused by NI01: NI indicates no inhibition; 1+: on a score of 1-3; 2+: on a score of 1-3; 3+: on a score of 1-3
[3] = tested on: Streptococcus mutans; experiment: MIC by micro-dilution (BSAC); type: cell-based;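 also: MIC in µg/ml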
[4] = tested on: S. epidermidis; experiment: MIC by micro-dilution (BSAC); type: cell-based;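 also: MIC in µg/ml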
[5] = tested on: Vancomycin resistant Enterococcus faecalis; experiment: MIC by micro-dilution (BSAC); type: cell-based
[6] = enzyme stability of the peptide (activity in AU/ml after enzyme treatment)
[7] = tested on: Listeria monocytogenes; experiment: MIC by micro-dilution (BSAC); type: cell-based
[8] = tested on: Propionibacterium acnes; experiment: spot on lawn method; type: cell-based; conditions: purified preparations of NI01, spot on lawn method
[9] = tested on: S. saprophyticus; experiment: MIC by micro-dilution (BSAC); type: cell-based
[10] = tested on: S. epidermidis s42; experiment: membrane potential, DiSC3(5) assay; type: cell-based; conditions: all concentrations assessed; levels exceeded positive control nisin 10×MIC
Text: as §1
In summary, mode of action studies, using DiSC3(5) [3,3′-Dipropylthiadicarbocyanine iodide] assays, indicate that NI01 depolarises the membrane (FIG. 12) of the a Staphylococcus epidermidis strain resulting in loss of potassium (FIG. 13) and ATP (FIG. 14).

[11] = tested on: Enterococcus faecalis; experiment: MIC by micro-dilution (BSAC); type: cell-based
[12] = tested on: S. epidermidis 156; experiment: viability, optical density and Gram staining after addition of peptide; type: cell-based
[13] = tested on: Bacillus cereus; experiment: MIC by micro-dilution (BSAC); type: cell-based
[14] = tested on: S. hominis; experiment: MIC by micro-dilution (BSAC); type: cell-based
[15] = tested on: S. warneri; experiment: MIC by micro-dilution (BSAC); type: cell-based
[16] = tested on: reference strain RP62a, gentamicin resistant clinical isolate 53 and gentamicin sensitive isolate 156; experiment: single-step (spontaneous) mutation tests; type: cell-based, S. epidermidis; conditions: two, four and eight times the MIC; strains RP62a, 53 and 156; no evidence of mutation
[17] = tested on: clinical biofilm forming strains of CNS Staphylococci species associated with prosthetic joint infections; experiment: passaging in sub-inhibitory concentrations; type: cell-based; conditions: for MIC after passaging: sub-inhibitory concentrations
[18] = tested on: S. aureus 1195; experiment: MIC by micro-dilution (BSAC); type: cell-based
[19] = tested on: S. epidermidis s42; experiment: ATP release; type: cell-based; conditions: 10×MIC
[20] = tested on: MRSA (EMRSA 15); experiment: MIC by micro-dilution (BSAC); type: cell-based;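 also: MIC in µg/ml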
[21] = following treatment with protease
[22] = Strain 11, gentamicin and methicillin resistant clinical isolate
[23] = Strain 12, gentamicin resistant clinical isolate

peptide NI01: antimicrobial peptide (bacteriocin, SEQ ID NO:3) obtained from a Staphylococcal culture; C terminal sequence QSFEWIYKQIKKLWA (MAAFMKLIQFLATKGQKYVSLAWKHKGTILKWINAGQSFEWIYKQIKKLWA; NOI01 polypeptide)
potassium release [1]: 100 % of positive control | Inhibition caused by NI01 ([2]; isolate 5133, Tissue (acetabulum), resistance: flu): 2+ | Inhibition caused by NI01 ([2]; isolate S1, Tissue, resistance: meth, pen, ery, amp, flu, gen, trim, cip): 2+ | Inhibition caused by NI01 ([2]; isolate S2, Joint fluid, resistance: pen, ery, amp, flu, gen, trim, cip): 2+ | Inhibition caused by NI01 ([2]; isolate S4, Tissue, resistance: meth, flu, gen, trim): 3+ | Inhibition caused by NI01 ([2]; isolate S5, Tissue, resistance: met): 3+ | Inhibition caused by NI01 ([2]; isolate S6, Femoral canal, resistance: flu, ery, gen, rif, cip): 1+ | Inhibition caused by NI01 ([2]; isolate S7, Femoral canal, sensitive): 1+ | Inhibition caused by NI01 ([2]; isolate S8, Tissue, resistance: flu, ery, gen, rif, cip): 1+ | Inhibition caused by NI01 ([2]; isolate S9, Tissue, resistance: flu, ery, gen, rif, cip): 3+ | Inhibition caused by NI01 ([2]; isolate S10, Tissue, resistance: flu, ery, gen, rif, cip): 1+ | Inhibition caused by NI01 ([2]; isolate S11, Tissue, resistance: flu, ery, gen, rif, cip): 2+ | Inhibition caused by NI01 ([2]; isolate S12, Tissue, resistance: flu, ery, rif, cip): 1+ | Inhibition caused by NI01 ([2]; isolate S13, Swab, resistance: flu, ery, gen, rif, cip): 1+ | Inhibition caused by NI01 ([2]; isolate S25, Swab (left hip joint), resistance: meth, gen): 2+ | Inhibition caused by NI01 ([2]; isolate S28, Tissue (femoral canal), resistance: meth, gen): 3+ | Inhibition caused by NI01 ([2]; isolate S30, Tissue (left capsule), resistance: meth): 3+ | Inhibition caused by NI01 ([2]; isolate S31, Swab (joint), sensitive): 2+ | Inhibition caused by NI01 ([2]; isolate S37, Tissue (knee), sensitive): 2+ | Inhibition caused by NI01 ([2]; isolate S39, Tissue (right knee), resistance: meth, flu, fus, cip): 1+ | Inhibition caused by NI01 ([2]; isolate S40, Tissue (right knee), resistance: meth, flu, ery, fus, clin, cip): 1+ | Inhibition caused by NI01 ([2]; isolate S41, Tissue (femoral canal), resistance: meth, flu, fus, cip): 1+ | Inhibition caused by NI01 ([2]; isolate S42, Tissue (right knee), resistance: meth, flu, fus, cip): NI | Inhibition caused by NI01 ([2]; isolate S43, Swab (right hip joint), resistance: meth, flu, ery, fus, clin, cip): NI | Inhibition caused by NI01 ([2]; isolate S44, Swab (right hip joint), resistance: meth, flu, ery): NI | Inhibition caused by NI01 ([2]; isolate S46, Swab (right hip joint), resistance: meth, flu, gen, fus, cip): NI | Inhibition caused by NI01 ([2]; isolate S47, Swab (tibia), resistance: meth, flu, ery, gen, fus, cip): NI | Inhibition caused by NI01 ([2]; isolate S48, Tissue (left knee), resistance: meth, flu, ery, gen, fus, cip): 1+ | Inhibition caused by NI01 ([2]; isolate S49, Tissue (left knee), resistance: meth, flu, ery, gen, fus, cip): 2+ | Inhibition caused by NI01 ([2]; isolate S52, Tissue (right hip joint), resistance: gen, cip): 2+ | Inhibition caused by NI01 ([2]; isolate S53, Swab (femur), resistance: gen, cip, fus): 2+ | Inhibition caused by NI01 ([2]; isolate S56, Tissue (right hip joint), sensitive): 2+ | Inhibition caused by NI01 ([2]; isolate S60, Tissue (femur), resistance: gen, trim): NI | Inhibition caused by NI01 ([2]; isolate S71, Swab (femur), resistance: flu): 2+ | Inhibition caused by NI01 ([2]; isolate S78, Tissue (right elbow), resistance: flu, ery): 1+ | Inhibition caused by NI01 ([2]; isolate S79, Pus (right elbow), resistance: meth, flu, ery): 1+ | Inhibition caused by NI01 ([2]; isolate S80, Tissue (triceps), resistance: flu, ery): 1+ | Inhibition caused by NI01 ([2]; isolate S81, Pus (right elbow), resistance: flu, ery): 1+ | Inhibition caused by NI01 ([2]; isolate S82, Tissue (right elbow), resistance: flu, ery): 1+ | Inhibition caused by NI01 ([2]; isolate S83, Tissue (next to bone), resistance: flu, ery): 1+ | Inhibition caused by NI01 ([2]; isolate S85, Tissue (left elbow), resistance: meth, ery): 1+ | Inhibition caused by NI01 ([2]; isolate S86, Swab (right elbow), sensitive): 2+ | Inhibition caused by NI01 ([2]; isolate S88, Swab (left hip), sensitive): 1+ | Inhibition caused by NI01 ([2]; isolate S89, Tissue (right elbow), resistance: meth, flu, ery): 1+ | Inhibition caused by NI01 ([2]; isolate S90, Ulcer, resistance: flu, ery): 2+ | Inhibition caused by NI01 ([2]; isolate S91, Swab (right acetabulum), resistance: flu): 2+ | Inhibition caused by NI01 ([2]; isolate S92, Swab (femur), resistance: flu): 1+ | Inhibition caused by NI01 ([2]; isolate S93, Tissue (wound), resistance: flu, ery, gen, fus): NI | Inhibition caused by NI01 ([2]; isolate S94, Tissue (right femur), resistance: flu): 3+ | Inhibition caused by NI01 ([2]; isolate S95, Tissue (right femur), resistance: flu, trim): 3+ | Inhibition caused by NI01 ([2]; isolate S96, Tissue (right femur), resistance: flu): 1+ | Inhibition caused by NI01 ([2]; isolate S97, Tissue (acetabulum), resistance: flu): 3+ | Inhibition caused by NI01 ([2]; isolate S106, Neck of femur, resistance: ery, fus): 3+ | Inhibition caused by NI01 ([2]; isolate S127, Tissue (screw holes), resistance: flu): 1+ | Inhibition caused by NI01 ([2]; isolate S128, Tissue (under plate), resistance: meth, flu): 1+ | Inhibition caused by NI01 ([2]; isolate S156, Tissue (acetabulum), resistance: ery, fus): 3+ | Inhibition caused by NI01 ([2]; isolate S159, Swab (right thigh), resistance: meth, flu, ery): 1+ | Inhibition caused by NI01 ([2]; isolate S160, Swab (right hip), resistance: meth, flu, gen): 2+ | Inhibition caused by NI01 ([2]; isolate S161, Swab (right hip sinus), resistance: flu, ery, gen, fus, cip): 2+ | Inhibition caused by NI01 ([2]; isolate S163, Tissue (right hip), resistance: flu, ery, gen, fus, cip): 1+ | Inhibition caused by NI01 ([2]; isolate S164, Tissue (right hip), resistance: ery, fus, amp, clin): NI | inhibitory effect, score ([2]; isolate Staphylococcus epidermis 156, biofilm forming, from infected acetabulum tissue, over a 100 hour period (FIG. 5)): +3 | clinical biofilm forming isolates of Staphylococci inhibited ([2]; isolates associated with joint and/or tissue infections, summary of Table 1): 58 out of the 60 | clinical biofilm forming isolates of Staphylococci inhibited, percent ([2]; summary of Table 1): 91% | MIC ([3]; Streptococcus mutans 263): 2 mg/L | MIC ([3]; Streptococcus mutans 313): 0.12 mg/L | MIC ([4]; S. epidermidis RP62a): 2 to 4 mg/L | MIC ([4]; S. epidermidis s1): 1 mg/L | MIC ([4]; S. epidermidis s2): 4 mg/L | MIC ([4]; S. epidermidis s37): 2 mg/L | MIC ([4]; S. epidermidis s42): 2 mg/L | MIC ([4]; S. epidermidis s44): 4 mg/L | MIC ([4]; S. epidermidis s60): 2 mg/L | MIC ([4]; S. epidermidis s93): 2 mg/L | MIC ([4]; S. epidermidis s156): 0.0625 mg/L | MIC ([5]; Vancomycin resistant Enterococcus faecalis 1): 1 mg/L | MIC ([5]; Vancomycin resistant Enterococcus faecalis 2): 1 mg/L | MIC ([5]; Vancomycin resistant Enterococcus faecalis 3): 1 mg/L | MIC ([5]; Vancomycin resistant Enterococcus faecalis 4): 1 to 2 mg/L | MIC ([5]; Vancomycin resistant Enterococcus faecalis 5): 0.5 to 1 mg/L | MIC ([5]; Vancomycin resistant Enterococcus faecalis 6): 0.5 mg/L | activity after treatment [6, 21]: 160 AU/ml | reduction in activity [6, 21]: 75% | activity before enzyme treatment ([6]; partially purified peptide, starting activity): 640 AU/ml | activity after treatment ([6]; treatment with trypsin): 320 AU/ml | reduction of activity ([6]; treatment with trypsin): 50% | MIC [7]: <0.125 mg/L | activity against Propionibacterium acnes [8]: activity | MIC [9]: 0.5 to 1 mg/L | effect on membrane potential [10]: rapidly depolarized the membrane | MIC [11]: 1 mg/L | stained cells per field of view (Gram stain) following addition of peptide ([12]; at least 150 small cocci per field prior to addition): less than 20 cells per field of view | type of activity against the target bacterium ([12]; from cfu count and optical density): bactericidal, but non-lytic | cfu count after addition of peptide ([12]; peptide added at T=30, decrease not as pronounced in optical density): rapid decrease | MIC [13]: <0.125 mg/L | MIC [14]: 1 mg/L | MIC [15]: 1 mg/L | mutation (single-step mutation tests) [16]: < 1.5×10^8 cfu/ml | MIC before passaging [17, 22]: 7800 mg/L | MIC after passaging [17, 22]: 15600 mg/L | MIC before passaging [17, 23]: 3900 mg/L | MIC after passaging [17, 23]: 7800 mg/L | change in MIC after passaging ([17]; all of the other strains tested (of twelve)): no change | MIC [18]: 2 mg/L | ATP released [19]: > 65 % of positive control | MIC ([20]; MRSA s37 (EMRSA 15)): 1 to 2 mg/L | MIC ([20]; MRSA s41 (EMRSA 15)): 1 to 2 mg/L | MIC ([20]; MRSA s71 (EMRSA 15)): 2 mg/L
